Reference: patent US9518041B2, “(+)-5-(3,4-difluorophenyl)-5-[(3-methyl-2-oxopyridin-1(2H)-yl)methyl]imidazolidine-2,4-dione and drug containing same” (KAKEN PHARMACEUTICAL CO., LTD., priority 2013, dated 2016)

What was measured:
human MMP-2 = target: T1, human MMP-2 (Homo sapiens, UniProt P08253); experiment: MMP-2 inhibition test; type: biochemical; conditions: read-out: Inhibitory activity (IC50, nM) MMP-2
T1 construct: purchased Calbiochem 444213
T1 sequence (P08253 110-660): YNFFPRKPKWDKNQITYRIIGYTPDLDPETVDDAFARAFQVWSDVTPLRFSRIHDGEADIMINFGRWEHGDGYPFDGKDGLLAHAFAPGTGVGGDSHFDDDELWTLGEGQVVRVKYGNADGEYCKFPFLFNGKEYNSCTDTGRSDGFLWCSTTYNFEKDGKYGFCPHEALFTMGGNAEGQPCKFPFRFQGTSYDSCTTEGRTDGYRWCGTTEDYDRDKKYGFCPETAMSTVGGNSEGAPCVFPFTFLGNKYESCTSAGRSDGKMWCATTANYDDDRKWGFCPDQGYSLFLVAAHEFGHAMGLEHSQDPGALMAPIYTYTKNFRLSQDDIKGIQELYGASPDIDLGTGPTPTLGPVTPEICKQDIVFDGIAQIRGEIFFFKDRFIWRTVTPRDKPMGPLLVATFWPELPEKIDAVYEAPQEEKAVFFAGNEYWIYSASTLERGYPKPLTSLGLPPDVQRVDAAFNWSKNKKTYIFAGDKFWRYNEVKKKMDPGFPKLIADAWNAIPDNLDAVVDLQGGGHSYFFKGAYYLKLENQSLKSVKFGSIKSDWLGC
Method: MMP inhibition tests can be carried out, for example, using a fluorescent synthetic substrate based on the methods described in Bickett et al. (D. Mark Bickett et al., Anal. Biochem., 1993, 212, 58-64) and Nagase et al. (H. Nagase et al., J. Biol. Chem., 1994, 269, 20952-20957). The method for each MMP inhibition test is shown below.
90 μL (5 ng) of human MMP-2 (Calbiochem #444213) was mixed with 10 μL of 10 mM APMA, and activated by reacting at 37° C. for 1 hour. 10 μL of the resultant enzyme solution was diluted to 90 μL with an assay buffer A. The mixture was added to 90 μL of a 20 μM fluorescent substrate (MOCAc((7-methoxycoumarin-4-yl)acetyl)-Pro-Leu-Gly-Leu-A2pr(Dnp)-Ala-Arg-NH2, Peptide Institute Inc., #3163-v) (SEQ ID NO: 3) prepared with an assay buffer B, and reacted at 37° C. for 5 hours. Enzyme activity was then determined by measuring with a fluorescence intensity meter (Labsystems, Fluoroskan Ascent) at an excitation wavelength of 320 nm and a measurement wavelength of 405 nm.
From the enzyme activity in the presence or the absence of the test substance, the inhibition rate was determined, and the 50% inhibitiory concentration (IC50) of the test substance was calculated.

[1] = Pharmacokinetic study after intravenous and percutaneous administration in hairless mice; type: in vivo; conditions: 1 w/v % Macrogol 400 solution, 50 μL/animal, occlusive
Method: Test substances (0.1 to 0.5 mg/5 mL/kg) were administered by bolus injection into the tail vein of hairless mice under anesthesia.
A 4 cm^2 administration site (2 cm×2 cm) was marked on the back skin of hairless mice under anesthesia (fed) using an oil-based marker. Test substances were applied to the administration site at 50 μL/animal (1 w/v % Macrogol 400 solution). Gauze (BEMCOT®) about 2 cm×2 cm in size was fixed using double-sided tape to an approximately 4 cm×4 cm polyethylene sheet, and the gauze face was placed over the face on which the test substance had been applied. An adhesive elastic bandage (Elastopore, about 10 cm) was stuck over the gauze to fix and protect the face on which the test substance had been applied. The mice were then returned to its cage. Twenty-four hours after administration, occlusive application was confirmed to have been properly carried out. […]
The cryopreserved plasma obtained by the above method was thawed at room temperature. After removing the protein using methanol, the concentration of the test substance in the plasma was measured. […]
Transdermal absorption rate was calculated using the following equation by calculating the AUC (area under the curve of the concentration in plasma) from the plasma concentration of the test substance measured by the method described above. […]

[2] = Solubility test in organic solvents (propylene glycol, butylene glycol); type: physicochemical; conditions: organic solvent or mixture, thermodynamic from solid
Method: Under room temperature conditions, in a 0.5 mL polypropylene tube, (+)-5-(3,4-difluorophenyl)-5-[(3-methyl-2-oxopyridin-1(2H)-yl)methyl]imidazolidine-2,4-dione and (±)-5-(3,4-difluorophenyl)-5-[(3-methyl-2-oxopyridin-1(2H)-yl)methyl]imidazolidine-2,4-dione measured in advance for a suitable amount were prepared, respectively. In each tube, solvent (Propylene glycol (PG) or butylene glycol (BG)) was added with various amounts, e.g. 10 times, 20 times or 100 times amount of the test compound, and stirred with a vortex mixer. With a table ultrasonic washer set at 37° C., ultrasonication treatment was given for 10 minutes; after warming for an hour in a thermostat chamber, each were kept standing for 24 hours at room temperature. The test solutions were observed by sight to evaluate the states in accordance with the determination criterion given below.
Determination criterion consisted of the following two categories:
“Soluble”: Test compound dissolved; no undissolved substances confirmed by visual observation.
“Insoluble”: Test compound remains undissolved; undissolved substances confirmed by visual observation.

Structure (SMILES): Cc1cccn(CC2(c3ccc(F)c(F)c3)NC(=O)NC2=O)c1=O (single isomer, unassigned; (+)) [(+)-5-(3,4-difluorophenyl)-5-[(3-methyl-2-oxopyridin-1(2H)-yl)methyl]imidazolidine-2,4-dione]
- IC50 (human MMP-2): > 10000 nM
- Transdermal absorbability after percutaneous administration [1]: good transdermal absorbability
- solubility at 24 h [2]: > 10000 µg/mL
